Measured values taken from PubChem BioAssay (NCI).
Where “and” joins values, the source holds several entries; their conditions need not be identical. Equal entries are not always repeated.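 Assay format: 96-well plates, 48-hour exposure. Abbreviation: GI50, concentration required for 50% inhibition of growth. TGI marks complete inhibition of growth.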

Assays:
Assay in all cases: inhibition of tumour cell growth, NCI panel, 48 h
HOP-92 NSCLC = tested on: HOP-92 NSCLC
SNB-75 CNS = tested on: SNB-75 CNS
HL-60(TB) leukemia = tested on: HL-60(TB) leukemia
SK-MEL-5 melanoma = tested on: SK-MEL-5 melanoma
HOP-62 NSCLC = tested on: HOP-62 NSCLC
786-0 renal = tested on: 786-0 renal
A549 NSCLC = tested on: A549 NSCLC
EKVX NSCLC = tested on: EKVX NSCLC
UACC-62 melanoma = tested on: UACC-62 melanoma
M14 melanoma = tested on: M14 melanoma

Compound	GI50 (HOP-92 NSCLC)	TGI (HOP-92 NSCLC)	GI50 (SNB-75 CNS)	TGI (SNB-75 CNS)	GI50 (HL-60(TB) leukemia)	TGI (HL-60(TB) leukemia)	GI50 (SK-MEL-5 melanoma) [nM]	TGI (SK-MEL-5 melanoma) [nM]	GI50 (HOP-62 NSCLC)	TGI (HOP-62 NSCLC)	GI50 (786-0 renal)	TGI (786-0 renal)	GI50 (A549 NSCLC)	TGI (A549 NSCLC)	GI50 (EKVX NSCLC)	TGI (EKVX NSCLC)	GI50 (UACC-62 melanoma)	TGI (UACC-62 melanoma)	GI50 (M14 melanoma)	TGI (M14 melanoma)
N#CC(=C1C=CC(=NO)C=C1)c1ccccc1	2490 nM	9460 nM	2140 nM	8990 nM	1190 nM	4100 nM	2010	8300	6310 nM	25200 nM	1690 nM	9910 nM	4580 nM	> 37200 nM	5310 nM	21400 nM	1490 nM	7410 nM	1740 nM	4360 nM
O=C(Nc1nc2ccc(C(F)(F)F)cc2s1)c1cc(Cl)ccc1O	116 nM	489 nM	1590 nM	7240 nM	1040 nM	3700 nM	234	684	2030 nM	7090 nM	2140 nM	30600 nM	1510 nM	> 100000 nM	370 nM	39000 nM	337 nM	3520 nM	935 nM	23900 nM
CCN(CC)CCCC(CNc1ccnc2cc(Cl)ccc12)c1ccc(Cl)cc1 (stereo not given)	1440 nM and 1160 nM	3120 nM and 2780 nM	1580 nM and 1400 nM	3180 nM and 2850 nM	1750 nM and 1520 nM	3790 nM and 3620 nM	1130	2400	1830 nM and 1640 nM	4230 nM and 3730 nM	1430 nM and 1570 nM	2850 nM and 2970 nM	2060 nM and 1630 nM	4200 nM and 3420 nM	2110 nM and 1670 nM	6030 nM and 4110 nM	1900 nM and 1860 nM	3520 nM and 3500 nM	227 nM and 203 nM	612 nM and 405 nM
